Source: patent US8557873B2, “Method for treating septic shock or endotoxemia” (priority 2009, dated 2013)
“Also recorded” adds a separate entry of the source.

Columns and labels:
[1] = test system: E. coli lipopolysacharide (LPS) induced septic shock/endotoxemia in male balb/c mice; assay: Survival of mice injected with E. coli LPS, treated 30 minutes later with compound i.p., observed three days; assay type: in vivo; details: for Survival rate (%) / Survival/total mice: 30 min after LPS 0.4 mg i.p., three days; for Therapeutic effect compared to the other compounds or to recombinant APC: comparison in words; for Concentration with the best therapeutic effect: concentration in 1 ml injected i.p., effect goes down above it; for Best treatment volume: per body weight of the mouse
Method: The mice used in this invention were male balb/c having body weights around 20 g, five to six weeks old. Each mouse was intraperitoneally injected with E. coli lipopolysacharide (LPS) 0.4 mg in 1 ml sterile saline. After 30 minutes, each mouse was intraperitoneally injected with one of the following compounds: amylamine, isoamylamine, 2-methylbutamine, n-methylbutamine. The above compounds were dissolved in 1 ml sterile saline to be pH 7.4. The E. coli LPS was serotype 0111:B4 obtained from Sigma (St. Louis, Mo.).
Each mouse was intraperitoneally injected with E. coli lipopolysaccharide (LPS) 0.4 mg in 1 ml saline, and was then injected with 1 ml amylamine (represented by SS1) of different concentrations (0%, 0.1%, and 0.3%) 30 minutes later. […] The therapeutic effect goes down if the dose above 0.3%. The best treatment volume of amylamine is 0.15 ml/Kg body weight of the mouse.
Each mouse was intraperitoneally injected with E. coli lipopolysacharide (LPS) 0.4 mg in 1 ml saline, and then injected with 1 ml isoamylamine (represented by SS2) of different concentrations (0%, 0.1%, and 0.3%) 30 minutes later. […] The therapeutic effect goes down if the dose above 0.1%. The best treatment volume of isoamylamine is 0.05 ml/kg body weight of the mouse.
Each mouse was intraperitoneally injected with E. coli lipopolysacharide (LPS) 0.4 mg in 1 ml saline, and then injected with 1 ml 2-methylbutamine (represented by SS3) of different concentrations (0%, 0.1%, and 0.3%) 30 minutes later. […] The therapeutic effect goes down if the dose above 0.1%. The best treatment volume of 2-methylbutamine is 0.05 ml/kg body weight of the mouse.
Each mouse was intraperitoneally injected with E. coli lipopolysacharide (LPS) 0.4 mg in 1 ml saline, and then 30 minutes later injected with 1 ml n-methylbutamine (represented by SS9) of different concentrations (0%, 0.1%, 0.3% and 1.0%) 30 minutes later. […] The therapeutic effect goes down if the dose above 1.0%. The best treatment volume of n-methylbutamine is 0.5 ml/kg body weight of the mouse. The dose of SS9 above 1.0% is toxic to mouse.

[2] = test system: patients with severe sepsis; details: cited from earlier work

Molecule | Survival rate (%) ([1]; 0.1% in 1 ml i.p.) | Survival/total mice ([1]; 0.1% in 1 ml i.p.) | Survival rate (%) ([1]; 0.3% in 1 ml i.p.) | Survival/total mice ([1]; 0.3% in 1 ml i.p.) | Therapeutic effect compared to the other compounds or to recombinant APC [1] | Concentration with the best therapeutic effect [1] [%] | Best treatment volume [1] [mL/kg] | Survival rate (%) ([1]; 1.0% in 1 ml i.p.) | Survival/total mice ([1]; 1.0% in 1 ml i.p.) | Dose toxic to mouse ([1]; concentration in 1 ml i.p.) | Absolute decrease in mortality [2] [%]
CCCCCN [SS1, amylamine] | 18 | 3/17 | 53 | 9/17 | higher therapeutic effects and decreased mortality over recombinant APC | 0.3 | 0.15 | – | – | – | –
CC(C)CCN [SS2, isoamylamine] | 83 | 15/18 | 50 | 9/18 | more significant therapeutic effect; also recorded: higher therapeutic effects and decreased mortality over recombinant APC | 0.1 | 0.05 | – | – | – | –
CCC(C)CN (centres unmarked) [SS3, 2-methylbutamine] | 53 | 16/30 | 33 | 10/30 | higher therapeutic effects and decreased mortality over recombinant APC | 0.1 | 0.05 | – | – | – | –
CCCCNC [SS9, n-methylbutamine] | 39 | 5/13 | 54 | 7/13 | higher therapeutic effects and decreased mortality over recombinant APC | 1.0 | 0.5 | 62 | 8/13 | above 1.0% | –
activated protein C | – | – | – | – | – | – | – | – | – | – | 6.1
